Counter-ions that a name gives are not always drawn. Like-named read-outs stand apart in the source and are kept apart here.
Tests used:
[1] = tested on: panel of 290 distinct kinases (321 in the larger panel), excluding mutant variants; details: kinase selectivity score, class symbols
wild type BRAF kinase = wild type BRAF kinase (Homo sapiens (Human), UniProt P15056); details: read-out: BRAF WT Kd, class symbols
mutant BRAF kinase = mutant BRAF kinase (Homo sapiens (Human), UniProt P15056, V600E); details: read-out: BRAF V600E Kd, class symbols
RAF kinases = RAF kinases (Homo sapiens (Human), UniProt P04049); details: read-out: RAF1 Kd, class symbols
[2] = value marked * (larger kinase panel)

Sequence of wild type BRAF kinase (P15056 whole entry): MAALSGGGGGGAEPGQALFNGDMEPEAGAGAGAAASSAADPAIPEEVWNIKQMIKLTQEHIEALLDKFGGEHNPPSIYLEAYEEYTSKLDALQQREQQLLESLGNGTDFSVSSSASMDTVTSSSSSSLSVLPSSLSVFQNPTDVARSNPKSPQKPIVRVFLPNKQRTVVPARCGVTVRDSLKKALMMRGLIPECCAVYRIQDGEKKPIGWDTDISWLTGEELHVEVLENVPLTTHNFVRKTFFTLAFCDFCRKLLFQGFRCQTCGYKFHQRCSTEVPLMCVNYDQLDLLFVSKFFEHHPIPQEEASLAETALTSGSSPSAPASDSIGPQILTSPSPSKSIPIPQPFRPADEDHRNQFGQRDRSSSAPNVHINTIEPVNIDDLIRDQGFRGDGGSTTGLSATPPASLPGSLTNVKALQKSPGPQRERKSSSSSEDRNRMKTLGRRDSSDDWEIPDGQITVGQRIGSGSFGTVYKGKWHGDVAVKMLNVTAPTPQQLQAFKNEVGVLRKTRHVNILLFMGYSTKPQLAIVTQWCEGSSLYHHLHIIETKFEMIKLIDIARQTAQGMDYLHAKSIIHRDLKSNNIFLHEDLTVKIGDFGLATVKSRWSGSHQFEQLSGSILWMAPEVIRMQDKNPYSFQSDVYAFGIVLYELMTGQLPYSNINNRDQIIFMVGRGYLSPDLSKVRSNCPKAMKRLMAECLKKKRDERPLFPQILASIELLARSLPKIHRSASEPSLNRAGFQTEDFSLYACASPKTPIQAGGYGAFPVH
Sequence of mutant BRAF kinase (P15056 whole entry V600E): as the sequence (P15056 whole entry) above, with V600E counted along it
Sequence of RAF kinases (P04049 whole entry): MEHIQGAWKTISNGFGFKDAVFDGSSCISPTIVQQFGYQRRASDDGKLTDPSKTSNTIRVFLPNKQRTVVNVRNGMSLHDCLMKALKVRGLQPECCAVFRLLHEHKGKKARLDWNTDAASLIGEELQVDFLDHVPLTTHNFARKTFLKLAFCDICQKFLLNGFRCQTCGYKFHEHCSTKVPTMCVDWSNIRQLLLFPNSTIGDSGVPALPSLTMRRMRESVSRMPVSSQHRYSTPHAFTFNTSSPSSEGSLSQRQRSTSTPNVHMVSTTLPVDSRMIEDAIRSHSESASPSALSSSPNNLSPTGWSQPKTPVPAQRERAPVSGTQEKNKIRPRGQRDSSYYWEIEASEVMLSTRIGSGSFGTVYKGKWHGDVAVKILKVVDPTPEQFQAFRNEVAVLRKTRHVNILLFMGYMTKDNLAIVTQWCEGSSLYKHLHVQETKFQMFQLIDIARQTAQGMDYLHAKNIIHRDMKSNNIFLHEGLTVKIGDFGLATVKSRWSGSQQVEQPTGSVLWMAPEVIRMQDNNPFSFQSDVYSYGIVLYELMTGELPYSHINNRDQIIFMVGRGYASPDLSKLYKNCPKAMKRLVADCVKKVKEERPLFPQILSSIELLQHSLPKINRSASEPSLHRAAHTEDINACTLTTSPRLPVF

| SMILES | S35 ([1]; 290 distinct kinases) | Kd (wild type BRAF kinase) [nM] | Kd (mutant BRAF kinase) [nM] | Kd (RAF kinases) [nM] | S35 [1, 2] |
| --- | --- | --- | --- | --- | --- |
| COc1cc(OC2CCOCC2)c2c(Oc3cccc(NC(=O)Nc4cc(C(C)(C)C)on4)c3)ncnc2c1 [Ex 94, 1-(5-tert-butylisoxazol-3-yl)-3-{3-[7-methoxy-5-(tetrahydro-2H-pyran-4-yloxy)quinazolin-4-yloxy]phenyl}urea] | C (0.20 < C ≦ 0.40) | > 1000 |  |  |  |
| COc1cc2ncnc(Oc3cccc(NC(=O)Nc4ccc(OC)c(C(F)(F)F)c4)c3)c2cc1OC [Ex 138, 1-(3-(6,7-dimethoxyquinazolin-4-yloxy)phenyl)-3-(4-methoxy-3-(trifluoromethyl)phenyl)urea] | B (0.10 < B ≦ 0.20) |  | < 250 | < 250 |  |
| COc1cc2ncnc(Oc3cccc(NC(=O)Nc4cc(C(C)(CF)CF)on4)c3)c2cc1OC [Ex 162, 1-[5-(1,3-difluoro-2-methylpropan-2-yl)isoxazol-3-yl]-3-[3-(6,7-dimethoxyquinazolin-4-yloxy)phenyl]urea] |  |  | < 250 | < 250 | C* (0.20 < C ≦ 0.40) |
| COc1cc2c(Oc3cccc(NC(=O)Nc4cc(C(C)(C)C)on4)c3)ncnc2cc1O[C@@H]1CCNC1 [Ex 98, (R)-1-(5-tert-butylisoxazol-3-yl)-3-(3-(6-methoxy-7-(pyrrolidin-3-yloxy)quinazolin-4-yloxy)phenyl)urea dihydrochloride] | C (0.20 < C ≦ 0.40) |  | < 250 | < 250 |  |
| COc1cc2ncnc(Oc3cccc(NC(=O)Nc4cccc(C(C)C)c4)c3)c2cc1OC [Ex 144, 1-(3-(6,7-dimethoxyquinazolin-4-yloxy)phenyl)-3-(3-isopropylphenyl)urea] |  |  | < 250 | < 250 | C* (0.20 < C ≦ 0.40) |
| COCCOc1cc(NC(=O)Nc2cccc(Oc3ncnc4cc(OC)c(OC)cc34)c2)ccc1C(F)(F)F [Ex 147, 1-(3-(6,7-dimethoxyquinazolin-4-yloxy)phenyl)-3-(3-(2-methoxyethoxy)-4-(trifluoromethyl)phenyl)urea] |  | > 1000 |  |  | B* (0.10 < B ≦ 0.20) |
| COc1cc2ncnc(Sc3cccc(NC(=O)Nc4cc(C(C)(CF)CF)on4)c3)c2cc1OC [Ex 191, 1-[5-(1,3-difluoro-2-methylpropan-2-yl)isoxazol-3-yl]-3-[3-(6,7-dimethoxyquinazolin-4-ylthio)phenyl]urea] |  |  | < 250 | < 250 | C* (0.20 < C ≦ 0.40) |
| COc1cc2ncnc(Oc3cccc(NC(=O)Nc4ccc(C(F)(F)F)cc4)c3)c2cc1OC [Ex 183, 1-(3-(6,7-dimethoxyquinazolin-4-yloxy)phenyl)-3-(4-(trifluoromethyl)phenyl)urea] |  |  | < 250 | < 250 | C* (0.20 < C ≦ 0.40) |
| COc1ccc2ncnc(Sc3cccc(NC(=O)Nc4cc(C(C)(C)C)on4)c3)c2c1 [Ex 49, 1-(5-tert-butylisoxazol-3-yl)-3-(3-(6-methoxyquinazolin-4-ylthio)phenyl)urea] | C (0.20 < C ≦ 0.40) | > 1000 |  |  |  |
| COc1cc2ncnc(Oc3cccc(NC(=O)Nc4nccc(C(F)(F)F)n4)c3)c2cc1OC [Ex 143, 1-(3-(6,7-dimethoxyquinazolin-4-yloxy)phenyl)-3-(4-(trifluoromethyl)pyrimidin-2-yl)urea] | A (A ≦ 0.10) | > 1000 |  |  |  |
| COc1cc2ncnc(Sc3cccc(NC(=O)Nc4ccc(C(F)(F)F)c(F)c4)c3)c2cc1OC [Ex 188, 1-(3-(6,7-dimethoxyquinazolin-4-ylthio)phenyl)-3-(3-fluoro-4-(trifluoromethyl)phenyl)urea] |  | > 1000 |  |  | B* (0.10 < B ≦ 0.20) |
| COc1cc2ncnc(Oc3cccc(NC(=O)Nc4cc(C5CCCC5)no4)c3)c2cc1OC [Ex 163, 1-(3-cyclopentylisoxazol-5-yl)-3-(3-(6,7-dimethoxyquinazolin-4-yloxy)phenyl)urea] |  | > 1000 |  |  | C* (0.20 < C ≦ 0.40) |
| COCCOc1ccc2ncnc(Sc3cccc(NC(=O)Nc4cc(C(C)(C)C)on4)c3)c2c1 [Ex 87, 1-(5-tert-butylisoxazol-3-yl)-3-(3-(6-(2-methoxyethoxy)quinazolin-4-ylthio)phenyl)urea] | C (0.20 < C ≦ 0.40) | > 1000 |  |  |  |
| COc1cc2ncnc(Oc3cccc(NC(=O)Nc4cc(C(F)(F)F)ccc4Cl)c3)c2cc1OC [Ex 142, 1-(2-chloro-5-(trifluoromethyl)phenyl)-3-(3-(6,7-dimethoxyquinazolin-4-yloxy)phenyl)urea] | B (0.10 < B ≦ 0.20) | > 1000 |  |  |  |
| COc1cc2ncnc(Sc3cccc(NC(=O)Nc4cc(CN5CCOCC5)cc(C(F)(F)F)c4)c3)c2cc1OC [Ex 189, 1-(3-(6,7-dimethoxyquinazolin-4-ylthio)phenyl)-3-(3-(morpholinomethyl)-5-(trifluoromethyl)phenyl)urea] |  | > 1000 |  |  | C* (0.20 < C ≦ 0.40) |
| COc1cc2c(Oc3cccc(NC(=O)Nc4cc(C(C)(C)C)on4)c3)ncnc2cc1O[C@H]1CCNC1 [Ex 96, (S)-1-(5-tert-butylisoxazol-3-yl)-3-(3-(6-methoxy-7-(pyrrolidin-3-yloxy)quinazolin-4-yloxy)phenyl)urea dihydrochloride] | C (0.20 < C ≦ 0.40) |  | < 250 | < 250 |  |
| COc1cc2ncnc(Oc3cccc(NC(=O)Nc4cc(C(C)(C)CO)on4)c3)c2cc1OC [Ex 131, 1-(3-(6,7-dimethoxyquinazolin-4-yloxy)phenyl)-3-(5-(1-hydroxy-2-methylpropan-2-yl)isoxazol-3-yl)urea] | C (0.20 < C ≦ 0.40) |  | < 250 | < 250 |  |
| COc1cc2ncnc(Sc3cccc(NC(=O)Nc4cc(C5CCCC5)on4)c3)c2cc1OC [Ex 201, 1-(5-Cyclopentylisoxazol-3-yl)-3-(3-(6,7-dimethoxyquinazolin-4-ylthio)phenyl)urea] |  |  | < 250 | < 250 | C* (0.20 < C ≦ 0.40) |
| COc1cc2ncnc(Sc3cccc(NC(=O)Nc4cccc(C(F)(F)F)c4)c3)c2cc1OC [Ex 185, 1-(3-(6,7-dimethoxyquinazolin-4-ylthio)phenyl)-3-(3-(trifluoromethyl)phenyl)urea] |  |  | < 250 | < 250 | C* (0.20 < C ≦ 0.40) |
| COc1cc2c(Oc3cccc(NC(=O)Nc4cc(C(C)(C)C)on4)c3)ncnc2cc1OCCCN1CCN(C)CC1 [Ex 28, 1-(5-tert-butylisoxazol-3-yl)-3-(3-(6-methoxy-7-(3-(4-methylpiperazin-1-yl)propoxy)quinazolin-4-yloxy)phenyl)urea] | D (D > 0.40) |  | < 250 | < 250 |  |
| COc1cc2ncnc(Sc3cccc(NC(=O)Nc4cc(C(C)(C)F)no4)c3)c2cc1OC [Ex 187, 1-(3-(6,7-dimethoxyquinazolin-4-ylthio)phenyl)-3-(3-(2-fluoropropan-2-yl)isoxazol-5-yl)urea] |  |  | < 250 | < 250 | C* (0.20 < C ≦ 0.40) |
| COc1cc2ncnc(Sc3cccc(NC(=O)Nc4cc(C(C)(C)C)on4)c3)c2cc1OCCCN1CCS(=O)(=O)CC1 [Ex 62, 1-(5-tert-butyl-isoxazol-3-yl)-3-(3-{6-[3-(1,1-dioxo-thiomorpholin-4-yl)-propoxy]-7-methoxy-quinazolin-4-ylsulfanyl}-phenyl)-urea] | C (0.20 < C ≦ 0.40) |  | < 250 | < 250 |  |
| COc1cc2ncnc(Oc3cccc(NC(=O)Nc4ccc(OC(F)(F)F)cc4)c3)c2cc1OC [Ex 177, 1-(3-(6,7-dimethoxyquinazolin-4-yloxy)phenyl)-3-(4-(trifluoromethoxy)phenyl)urea] | C (0.20 < C ≦ 0.40) |  | < 250 | < 250 |  |
| COc1cc2ncnc(Sc3cccc(NC(=O)Nc4cc(C(C)(C)C)on4)c3)c2cc1OCCCN1CCOCC1 [Ex 63, 1-(5-tert-butylisoxazol-3-yl)-3-(3-(7-methoxy-6-(3-morpholinopropoxy)quinazolin-4-ylthio)phenyl)urea] | C (0.20 < C ≦ 0.40) |  | < 250 | < 250 |  |
| COc1cc2ncnc(Sc3cccc(NC(=O)Nc4cccc(C(C)(C)C)c4)c3)c2cc1OC [Ex 120, 1-(3-tert-butylphenyl)-3-(3-(6,7-dimethoxyquinazolin-4-ylthio)phenyl)urea] |  |  | < 250 | < 250 | C* (0.20 < C ≦ 0.40) |
| COc1cc2ncnc(Sc3cccc(NC(=O)Nc4cc(C(C)(C)C)on4)c3)c2cc1OCCCN1CCN(CCO)CC1 [Ex 61, 1-(5-tert-butylisoxazol-3-yl)-3-(3-(6-(3-(4-(2-hydroxyethyl)piperazin-1-yl)propoxy)-7-methoxyquinazolin-4-ylthio)phenyl)urea] | D (D > 0.40) |  | < 250 | < 250 |  |
| COc1cc2ncnc(Oc3cccc(NC(=O)Nc4cc(C(C)(C)C)on4)c3)c2cc1OCCCN1CCS(=O)(=O)CC1 [Ex 26, 1-(5-tert-butyl-isoxazol-3-yl)-3-(3-{6-[3-(1,1-dioxo-thiomorpholin-4-yl)-propoxy]-7-methoxy-quinazolin-4-yloxy}-phenyl)-urea] | D (D > 0.40) |  | < 250 | < 250 |  |
| COc1cc2ncnc(Oc3cccc(NC(=O)Nc4cc(C(C)(C)C)on4)c3)c2cc1O[C@H]1CCN(CC(F)F)C1 [Ex 110, (S)-1-(5-tert-butylisoxazol-3-yl)-3-(3-(6-(1-(2,2-difluoroethyl)pyrrolidin-3-yloxy)-7-methoxyquinazolin-4-yloxy)phenyl)urea] | C (0.20 < C ≦ 0.40) |  | < 250 | < 250 |  |
| COc1cc2ncnc(Oc3cccc(NC(=O)Nc4cc(C(C)(C)C)on4)c3)c2cc1OC[C@@H](O)CN1CCN(C)CC1 [Ex 111, (S)-1-(5-tert-butylisoxazol-3-yl)-3-(3-(6-(2-hydroxy-3-(4methylpiperazin-1-yl)propoxy)-7-methoxyquinazolin-4-yloxy)phenyl)urea] | D (D > 0.40) |  | < 250 | < 250 |  |
